The target in this test is T1, Macrophage migration inhibitory factor (Homo sapiens, UniProt P14174).
T1 sequence (P14174 whole entry): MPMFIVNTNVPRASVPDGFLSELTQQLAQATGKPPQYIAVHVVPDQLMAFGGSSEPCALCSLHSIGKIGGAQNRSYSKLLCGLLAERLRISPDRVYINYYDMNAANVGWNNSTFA
The test can be described thus: MIF Enzymatic Assay. As for the experimental part:
Assays were performed in small-volume clear-bottom black 96 or 384-well polystyrene plates (Greiner Bio-One). First, 2 μL of the enzyme solution containing 6 nM of MIF in DPBS, 0.025% w/v BSA, and 300 μM CHAPS was dispensed onto sample and negative control wells using Multidrop Combi with metallic tip cassettes (Thermo Fisher Scientific) previously treated with Sigmacote. Then, 2 μL of the same buffer without MIF was dispensed onto positive control wells. […] In order to remove bubbles, the plate was centrifuged in an Allegra 25R centrifuge (Beckman Coulter, Inc., Brea, CA) at 1000 rpm for 2 min at room temperature. Then, the plate was read in an EnVision. Final concentrations of enzyme and substrate were 3 nM and 1.5 mM, respectively. Initial rates were calculated for each well as the slope of the absorbance progress curve.

pIC50: −log10 of the molar value.

What is called pIC50 is the negative decadic logarithm of the IC50, by convention in mol/L. `COc1cc(N2CCC(O)C2)ccc1C(=O)NCc1nnc(-c2cccs2)o1` (stereo not drawn) [US11884682, Compound 78] gave a pIC50 of 6.24.

The molecule `COc1cc(NCCO)ccc1C(=O)NCc1nnc(-c2cccs2)o1` [US11884682, Compound 79] showed a negative-log IC50 (pIC50) of 6.15.

As to `COc1cc(OC2CCNC2)ccc1C(=O)NCc1nnc(-c2cccs2)o1` (stereo not drawn) [US11884682, Compound 81], the pIC50 is 5.60.

(Values after BindingDB's records for patent US11884682 (Nanjing Immunophage Biotech Co., 2024).)
